# Source: PubChem BioAssay AID1552 (Sanford-Burnham Center for Chemical Genomics, 2009)
# Activity calls are given as the source filed them. The rule behind the calls is not given here.
# Molecular target: Ubiquitin-conjugating enzyme E2 N (Homo sapiens) (UniProt P61088)
# Experiment: UBE2N binders by NMR, biophysical, purified protein (AID 1552)
# Details: NMR binding to purified UBE2N
# Chain of Ubiquitin-conjugating enzyme E2 N (Homo sapiens) (P61088 whole entry, looked up): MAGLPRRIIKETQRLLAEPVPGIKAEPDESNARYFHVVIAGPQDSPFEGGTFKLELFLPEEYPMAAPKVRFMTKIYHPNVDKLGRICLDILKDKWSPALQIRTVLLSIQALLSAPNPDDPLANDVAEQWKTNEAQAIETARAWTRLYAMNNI
row,Structure (SMILES),Kd
1,NC(=O)c1cccc2c(=O)oc3ccccc3c12,> 4 mM (inactive)
2,Cc1cc(OC(=O)c2ccco2)c([N+](=O)[O-])c(=O)[nH]1,> 4 mM (inactive)
3,O=C(O)C1CN(Cc2ccccc2)CCO1 (configuration not stated),> 4 mM (inactive)
4,Cc1nn(-c2ccccc2)nc1C(=O)O,> 4 mM (inactive)
5,COc1ccc([C@H]2Oc3c(I)c(OC)cc(OC)c3C[C@@H]2O)cc1OC,> 4 mM (inactive)
6,c1ccc(-n2ncc3c(NCc4ccco4)ncnc32)cc1,> 4 mM (inactive)
7,CC(C)=CCCC1(C)C=Cc2c(O)c3c(c(CC=C(C)C)c2O1)OC12C(=CC4CC1C(C)(C)OC2(C/C=C(/C)C(=O)O)C4O)C3=O (configuration not stated),> 4 mM (inactive)
8,O=S(=O)(Cc1ccccc1Cl)Nc1ccccn1,> 4 mM (inactive)
9,O=c1c(O)c(-c2ccccc2)oc2cc(O)ccc12,> 4 mM (inactive)
10,CN(C)C(=O)c1ccccc1-c1ccccc1,> 4 mM (inactive)
11,CC(CC(=O)O)n1cccn1 (configuration not stated),> 4 mM (inactive)
12,Cc1ncoc1C(=O)Nc1ccccc1C(N)=O,> 4 mM (inactive)
13,CC(C)c1ccc(NC(=O)C(N)=O)cc1,> 4 mM (inactive)
14,CC1(C)CC(=O)c2sc(N)nc2C1,> 4 mM (inactive)
15,Cc1ccccc1NC(=O)CC1SC(N)=NC1=O (configuration not stated),> 4 mM (inactive)
16,COc1ccc(-c2cc(=O)c3ccccc3o2)cc1OC,> 4 mM (inactive)
17,Cn1nc(C(C)(C)C)cc1N,> 4 mM (inactive)
18,O=C(c1ccncc1)c1ccc(Br)cc1,> 4 mM (inactive)
19,NCCc1cnc[nH]1,> 4 mM (inactive)

row,Structure (SMILES),Kd
1,CC1=C2[C@H]3OC(=O)[C@@H](C)[C@@H]3CC[C@@]2(C)C=CC1=O,> 4 mM (inactive)
2,Nc1ncnc2c1ncn2CCOc1ccccc1,> 4 mM (inactive)
3,O=C(O)C1CC(=O)N(CCc2ccc(Cl)cc2)C1 (configuration not stated),> 4 mM (inactive)
4,CCNC(=S)NS(=O)(=O)c1ccccc1,> 4 mM (inactive)
5,Nc1c2c3c(sc2nc(=O)n1N)CCCC3,> 4 mM (inactive)
6,Cc1ccc(C2NS(=O)(=O)N=C2N)cc1 (configuration not stated),> 4 mM (inactive)
7,Cc1cc(=O)c2c(O)c(C)c(O)cc2o1,> 4 mM (inactive)
8,O=C(Nc1nncs1)C1(c2ccccc2)CCCC1,> 4 mM (inactive)
9,COc1ccc(C(=O)NCC(=O)O)cc1,> 4 mM (inactive)
10,Cc1ccc(C)n1-c1ccc(C(=O)N2CCOCC2)cc1,> 4 mM (inactive)
11,Cc1cccnc1NC1=NCC(C)S1 (configuration not stated),> 4 mM (inactive)
12,CC(=O)NC(NC(C)=O)c1ccccc1,> 4 mM (inactive)
13,Cc1nc(-c2ccc(NS(C)(=O)=O)cc2)cs1,> 4 mM (inactive)
14,O=C(O)CCCNC(=O)c1ccccc1C(=O)O,> 4 mM (inactive)
15,Cc1cc(O)cc(=O)n1CCCC(=O)O,> 4 mM (inactive)
16,OCc1ccc2occc2c1,> 4 mM (inactive)
17,Cc1nc(N2CCOCC2)[nH]c(=O)c1C,> 4 mM (inactive)
18,O=C(NCc1ccccc1Br)c1ccco1,> 4 mM (inactive)
19,COC(=O)[C@]1(C)CCC[C@]2(C)c3ccc(C(C)C)cc3C(=O)CC12 (some centres not stated),> 4 mM (inactive)

row,Structure (SMILES),Kd
1,CC1CC[C@@]2(OC1)O[C@H]1CC3C4CC[C@@H]5C[C@@H](O)CC[C@]5(C)C4CC[C@]3(C)[C@H]1[C@@H]2C (some centres not stated),> 4 mM (inactive)
2,Cc1nc(-c2ccc(C(=O)N3CCOCC3)cc2)cs1,> 4 mM (inactive)
3,COc1cccc(NC(=O)c2nc3ncccn3n2)c1,> 4 mM (inactive)
4,CS(=O)(=O)CCCCN=C=S,> 4 mM (inactive)
5,O=S(=O)(c1cccc2cccnc12)N1CCOCC1,> 4 mM (inactive)
6,O=C(CSc1ncn[nH]1)c1ccccc1,> 4 mM (inactive)
7,CC(CC(=O)NN)C1(O)CCCCC1 (configuration not stated),> 4 mM (inactive)
8,COc1cc(O)c2c(c1)C(=O)c1cc(C)cc(O)c1C2=O,> 4 mM (inactive)
9,N#CC(O[C@@H]1O[C@H](CO[C@@H]2O[C@H](CO)[C@@H](O)[C@H](O)[C@H]2O)[C@@H](O)[C@H](O)[C@H]1O)c1ccccc1 (some centres not stated),> 4 mM (inactive)
10,Nc1ccc(O)cn1,> 4 mM (inactive)
11,Oc1ccc(-c2n[nH]c(=S)n2Cc2ccco2)cc1,> 4 mM (inactive)
12,CN(C)C(=O)Oc1ccc(-c2nnco2)cc1,> 4 mM (inactive)
13,Cc1ccc2c(c1)=C(c1sc(N)nc1O)C(=O)N=2,> 4 mM (inactive)
14,O=C1NC(=S)N/C1=C\c1ccccc1,> 4 mM (inactive)
15,CC(=O)c1cccc(NC(=O)NN2CCOCC2)c1,> 4 mM (inactive)
16,NCC1CN(Cc2ccccc2)CCO1 (configuration not stated),> 4 mM (inactive)
17,Cn1ncc(CO)c1-c1ccccc1,> 4 mM (inactive)
18,O=C(O)c1cc2ccccc2[nH]1,> 4 mM (inactive)
19,O=C(O)C1=C[C@@H](O)[C@@H](O)[C@H](O)C1,> 4 mM (inactive)
